Patent publication US12448388B2, “PRMT5 inhibitors and uses thereof” (Gilead Sciences, Inc., priority 2023, dated 2025)
Where two headings read alike, the source gives them in different places.

How the values were obtained:
[1] = Cell viability assay (CellTiter-Glo, 7 days), HCT116 WT; type: cell-based; conditions: human, HCT116 WT cells, 7 days of treatment, CTG
How it was run: (§1)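 First, compounds are serially diluted in DMSO and dispensed into plates, which are frozen until seeding. Next, cells are added and incubated 7 days at 37 °C, 5% CO2, 90% humidity. Finally, CellTiter-Glo reagent is added and luminescence is measured to derive CC50.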

[2] = system: HCT116 MTAP-deleted cell lines; experiment: Cell viability assay (CellTiter-Glo, 7 days), HCT116 MTAP-deleted; type: cell-based; conditions: for Selectivity: HCT116 WT CC50 versus HCT116 MTAP^del CC50; for plasma-adjusted CC50 (paCC50): paCC50 = CC50-HCT116-MTAP^del * (% free CCM/% free human plasma); for CC50: Homo sapiens, HCT116 MTAP-deleted
How it was run: as §1

[3] = Pharmacokinetics in cassette in male Sprague-Dawley rats for Kp measurement; type: in vivo; conditions: 1 mg/kg, intravenous
Method: E.1 Test Animal: Male Sprague-Dawley Rats (225-300 g) with Indwelling Bilateral Jugular Vain Cannula (JVC/JVC) or Single Jugular Vein Cannula (JVC)
E.2 Pharmaceutical Formulation and Administration
Test compound was dissolved in the vehicle of 10% DMSO, 10% ethanol, 40% polyethylene glycol 300, and 40% propylene glycol to get 1 mg/mL test compound solution. The compound was administered by intravenous administration at a dose of 1 mL/kg. Fasting was not required.
• Anticoagulant: K2EDTA • Volume: approximately 225 μL blood at each bleed • Jugula vein via syringe and needle or another method (non-terminal samples) or exsanguination (cardiac puncture) under isoflurane (or CO2 inhalation if isoflurane is unavailable) anesthesia (terminal time points). Blood samples were collected into K2EDTA tubes • Tissue collection and processing: following the terminal blood collection, the brain and CSF were collected from each animal.

[4] = Hepatocyte stability assay, human; type: in vitro ADME; conditions: human hepatocytes, 1 μM
How it was run: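 Cryopreserved hepatocytes (viability ≥85%) incubated with 1 μM compound at 1×10^6 cells/mL in KHB, 37 °C, 95% air/5% CO2, sampled at 0, 1, 3 and 6 h. Parent remaining quantified by LC-MS/MS; half-life from first-order exponential fit (ln2/k), scaled to intrinsic hepatic clearance.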

[5] = HCT-116, 168 h, 7 days of treatment, CTG, read-out: CC50-HCT116-MTAP^del
[6] = HCT-116, cell viability, class symbols, read-out: CC50
[7] = brain Kp = [brain]/[plasma], rat, read-out: Rat brain Kp
[8] = brain Kpu,u = Kp * (plasma free/rat brain free), read-out: Rat brain Kpu,u

Compound	CC50 at 7 days [1]	Selectivity [2]	plasma-adjusted CC50 (paCC50) ([2]; HCT-116)	CC50 [2, 5]	CC50 [2, 6]	Kp [3, 7]	Kp [3, 8]	Human Predicted Hepatocyte CL [4]	CC50 ([2]; HCT-116, cell viability assay, class symbols, read-out: CC50)
Nc1nc2cnc(C(=O)N3CCC[C@@H]4Oc5c(ccc(C(F)(F)F)c5F)[C@@H]43)cc2n2cncc12 [Ff-109, (4-aminoimidazo[1,5-a]pyrido[3,4-e]pyrazin-8-yl)((4aS,9bS)-6-fluoro-7-(trifluoromethyl)-3,4,4a,9b-tetrahydrobenzofuro[3,2-b]pyridin-1(2H)-yl)methanone]	1380 nM	92	276 nM	15 nM	< 100 nM	0.1	0.02	2.33 mL/min/kg	–
Nc1nc2cnc(C(=O)N3CCC[C@@H]4Oc5cc(C(F)(F)F)ccc5[C@@H]43)cc2n2cncc12 [Ff-110, (4-aminoimidazo[1,5-a]pyrido[3,4-e]pyrazin-8-yl)((4aS,9bS)-7-(trifluoromethyl)-3,4,4a,9b-tetrahydrobenzofuro[3,2-b]pyridin-1(2H)-yl)methanone]	516 nM	86	100 nM	6 nM	< 100 nM	0.48	0.06	3.67 mL/min/kg	–
Nc1nc2ccc(C(=O)N3CCC[C@@H]4Oc5cc(C(F)(F)F)ccc5[C@@H]43)cc2n2cncc12 [Ff-111, (4-aminoimidazo[1,5-a]quinoxalin-8-yl)((4aS,9bS)-7-(trifluoromethyl)-3,4,4a,9b-tetrahydrobenzofuro[3,2-b]pyridin-1(2H)-yl)methanone]	1100 nM	110	139 nM	10 nM	< 100 nM	0.4	0.06	5.83 mL/min/kg	–
Cc1ncc2c(N)nc3cnc(C(=O)N4CCC[C@@H]5Oc6cc(OC(F)(F)F)ccc6[C@@H]54)cc3n12 [Ff-340, (4-amino-1-methylimidazo[1,5-a]pyrido[3,4-e]pyrazin-8-yl)((4aS,9bS)-7-(trifluoromethoxy)-3,4,4a,9b-tetrahydrobenzofuro[3,2-b]pyridin-1(2H)-yl)methanone]	2460 nM	107	298 nM	23 nM	< 100 nM	0.2	0.06	5 mL/min/kg	–
Nc1nc2cnc(C(=O)N3CCC[C@@H]4Oc5cc(OC(F)(F)F)ccc5[C@@H]43)cc2n2cncc12 [Ff-341, (4-aminoimidazo[1,5-a]pyrido[3,4-e]pyrazin-8-yl)((4aS,9bS)-7-(trifluoromethoxy)-3,4,4a,9b-tetrahydrobenzofuro[3,2-b]pyridin-1(2H)-yl)methanone]	710 nM	79	150 nM	9 nM	< 100 nM	0.37	0.11	3.67 mL/min/kg	–
Nc1nc2cnc(C(=O)N3CC[C@H]4C[C@@H]3c3ccc(C(F)(F)F)cc3O4)cc2n2cncc12 [Ff-367, (4-aminoimidazo[1,5-a]pyrido[3,4-e]pyrazin-8-yl)((2S,6R)-9-(trifluoromethyl)-3,4-dihydro-2H-2,6-methanobenzo[b][1,5]oxazocin-5(6H)-yl)methanone]	925 nM	77	199 nM	12 nM	< 100 nM	0.32	–	2.67 mL/min/kg	–
Cc1ncn2c1c(N)nc1cnc(C(=O)N3CCC[C@@H]4Oc5cc(C(F)(F)F)ccc5[C@@H]43)cc12 [Ff-499, (4-amino-3-methylimidazo[1,5-a]pyrido[3,4-e]pyrazin-8-yl)((4aS,9bS)-7-(trifluoromethyl)-3,4,4a,9b-tetrahydrobenzofuro[3,2-b]pyridin-1(2H)-yl)methanone]	897 nM	69	168 nM	13 nM	–	0.67	0.15	4.17 mL/min/kg	< 100 nM
